Data on 14 compounds can be found in US7524853B2 (Solvay Pharmaceuticals B.V., priority 2003, dated 2009).

The structures appear in SMILES notation.

What all share (type): cell-based
Test [1] concerns the target T1, 17β-hydroxysteroid dehydrogenase type 1 (17β-HSD type 1) (Homo sapiens, UniProt P14061).
T1 construct: expressed in transfected cells; host or cells: MCF-7
T1 sequence (P14061 1-328): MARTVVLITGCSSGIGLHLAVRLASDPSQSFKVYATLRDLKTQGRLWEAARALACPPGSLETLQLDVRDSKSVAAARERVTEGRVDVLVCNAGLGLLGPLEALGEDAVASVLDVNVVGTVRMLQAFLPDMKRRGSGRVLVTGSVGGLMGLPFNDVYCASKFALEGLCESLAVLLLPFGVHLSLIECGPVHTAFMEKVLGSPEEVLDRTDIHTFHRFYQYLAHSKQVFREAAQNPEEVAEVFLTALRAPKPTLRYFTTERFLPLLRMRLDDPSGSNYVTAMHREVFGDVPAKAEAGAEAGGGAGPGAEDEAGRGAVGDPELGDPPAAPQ
The experiment in a line: Inhibition of 17β-HSD type 1 in MCF-7 cells stably expressing the isoenzyme (tritium labeled estrone conversion, HPLC). Particulars: MCF7, MCF-7 cells expressing 17β-HSD type 1, 2 nM tritium labeled estrone; for inhibition at 1 µM: 1 μM test compound, read-out: % Inhibition HSD1 1 μM; for inhibition at 10 µM: 10 μM test compound, read-out: % Inhibition HSD1 10 μM. In a few lines:
(§1)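 MCF-7 lines stably expressing each 17β-HSD isoenzyme incubated in growth medium with compound at two concentrations and 2 nM tritiated substrate (estrone, type 1; estradiol, type 2; androstenedione, type 3). Reaction stopped with TCA; conversion measured by HPLC with flow scintillation, inhibition relative to compound-free control.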

The target in test [2] is T2, 17β-hydroxysteroid dehydrogenase type 2 (17β-HSD type 2) (Homo sapiens, UniProt P37059).
T2 construct: expressed in transfected cells; host or cells: MCF-7
T2 sequence (P37059 1-387): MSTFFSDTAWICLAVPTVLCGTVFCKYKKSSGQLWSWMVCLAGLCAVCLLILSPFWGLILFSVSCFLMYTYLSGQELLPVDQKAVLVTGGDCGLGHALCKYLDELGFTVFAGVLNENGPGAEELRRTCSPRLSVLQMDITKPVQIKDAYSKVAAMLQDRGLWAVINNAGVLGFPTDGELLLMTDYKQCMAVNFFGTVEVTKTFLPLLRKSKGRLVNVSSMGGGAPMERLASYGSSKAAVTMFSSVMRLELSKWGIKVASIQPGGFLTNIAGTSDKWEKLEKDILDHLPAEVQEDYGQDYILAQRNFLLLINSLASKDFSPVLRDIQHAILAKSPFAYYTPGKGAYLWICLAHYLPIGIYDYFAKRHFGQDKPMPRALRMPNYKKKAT
The experiment in a line: Inhibition of 17β-HSD type 2 in MCF-7 cells stably expressing the isoenzyme (tritium labeled estradiol conversion, HPLC). The conditions noted are these: MCF7, MCF-7 cells expressing 17β-HSD type 2, 2 nM tritium labeled estradiol; for inhibition at 1 µM: 1 μM test compound, read-out: % Inhibition HSD2 1 μM; for inhibition at 10 µM: 10 μM test compound, read-out: % Inhibition HSD2 10 μM. In a few lines:
as §1

Test [3] concerns the target T3, 17β-hydroxysteroid dehydrogenase type 3 (17β-HSD type 3) (Homo sapiens, UniProt P37058).
T3 construct: expressed in transfected cells; host or cells: MCF-7
T3 sequence (P37058 1-310): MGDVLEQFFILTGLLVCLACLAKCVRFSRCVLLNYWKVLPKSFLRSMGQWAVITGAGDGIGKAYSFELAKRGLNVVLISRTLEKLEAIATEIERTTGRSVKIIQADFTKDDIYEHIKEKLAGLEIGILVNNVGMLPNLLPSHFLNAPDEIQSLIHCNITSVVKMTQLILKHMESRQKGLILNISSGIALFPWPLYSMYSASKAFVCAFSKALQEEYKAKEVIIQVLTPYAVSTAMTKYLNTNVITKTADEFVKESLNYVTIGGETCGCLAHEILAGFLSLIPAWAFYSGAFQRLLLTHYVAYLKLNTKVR
The experiment in a line: Inhibition of 17β-HSD type 3 in MCF-7 cells stably expressing the isoenzyme (tritium labeled androstenedione conversion, HPLC). The conditions noted are these: MCF7, MCF-7 cells expressing 17β-HSD type 3, 2 nM tritium labeled androstenedione; for inhibition at 1 µM: 1 μM test compound, read-out: % Inhibition HSD3 1 μM; for inhibition at 10 µM: 10 μM test compound, read-out: % Inhibition HSD3 10 μM. The procedure, abridged:
as §1

As to `CCCc1nc2sc3c(c2c(=O)n1Cc1ccc(Br)o1)CCC(Br)C3=O` (stereo not drawn) [No. 103, 7-Bromo-3-(5-bromofuran-2-ylmethyl)-2-propyl-6,7-dihydro-3H,5H-benzo[4,5]thieno[2,3-d]pyrimidine-4,8-dione], the inhibition at 1 µM was 16.2% in test [1], 30.7% in test [2] and -7.7% in test [3]. Further, the inhibition at 10 µM was 70.6% in test [1], 49.7% in test [2] and 51.8% in test [3].
Take `CCCc1nc2sc3c(c2c(=O)n1Cc1ccc(Br)o1)CCC(Br)(Br)C3=O` [No. 104, 7,7-Dibromo-3-(5-bromofuran-2-ylmethyl)-2-propyl-6,7-dihydro-3H,5H-benzo[4,5]thieno[2,3-d]pyrimidine-4,8-dione]: the results for the inhibition at 1 µM in test [1], in test [2] and in test [3] were 20.2%, 26.6% and -5%, respectively. For the same compound, the results for the inhibition at 10 µM in test [1], in test [2] and in test [3] were 42.6%, 47.9% and 51.4%, respectively.
Consider `CCCc1nc2sc3c(O)cccc3c2c(=O)n1Cc1ccc(Br)o1` [No. 105, 3-(5-Bromofuran-2-ylmethyl)-8-hydroxy-2-propyl-3H-benzo[4,5]thieno[2,3-d]pyrimidin-4-one], for which the inhibition at 1 µM in test [1] worked out at 29.8%; in test [2] it was 50.7%; in test [3] it was 17.7%. The inhibition at 10 µM in test [1] worked out at 61.2%; in test [2] it was 85.9%; in test [3], 67.3%.
`CCCc1nc2sc3c(OC(C)=O)cccc3c2c(=O)n1Cc1ccc(Br)o1` [No. 106, Acetic acid 3-(5-bromofuran-2-ylmethyl)-4-oxo-2-propyl-3,4-dihydro-benzo[4,5]thieno[2,3-d]pyrimidin-8-yl ester]: the inhibition at 1 µM was determined as 28.8% in test [1], 50% in test [2] and 8.1% in test [3]. For the same compound, the inhibition at 10 µM came to 72.5% in test [1], 86.2% in test [2] and 71.1% in test [3].
For the compound `CCCc1nc2sc3c(O)c(Br)ccc3c2c(=O)n1Cc1ccc(Br)o1` [No. 107, 7-Bromo-3-(5-bromofuran-2-ylmethyl)-8-hydroxy-2-propyl-3H-benzo[4,5]thieno[2,3-d]pyrimidin-4-one], the inhibition at 1 µM is -14.2% in test [1], 25.4% in test [2] and 3.2% in test [3]. The inhibition at 10 µM in test [1] is 24.7%; in test [2], 45.7%; in test [3], 44.3%.
As to `COCCn1c(-c2cc(OC)c(OC)c(OC)c2)nc2sc3c(c2c1=O)CCCC3` [No. 108, 3-(2-Methoxyethyl)-2-(3,4,5-trimethoxyphenyl)-5,6,7,8-tetrahydro-3H-benzo[4,5]thieno[2,3-d]pyrimidin-4-one], the inhibition at 1 µM in test [1] is 5.2%; in test [2], 9.6%; in test [3] it was 0.8%. Moreover, the inhibition at 10 µM in test [1] stood at 11%; in test [2], 7.4%; in test [3] it was 9.8%.
With `COCCn1c(-c2cc(OC)c(OC)c(OC)c2)nc2sc3c(c2c1=O)CCCC3=O` [No. 109, 3-(2-Methoxyethyl)-2-(3,4,5-trimethoxyphenyl)-6,7-dihydro-3H,5H-benzo[4,5]thieno[2,3-d]pyrimidine-4,8-dione], the inhibition at 1 µM is -0.2% in test [1], 6% in test [2] and 0.6% in test [3]. Moreover, the results for the inhibition at 10 µM in test [1], in test [2] and in test [3] were 20.7%, 9.7% and 11.6%, respectively.
`COCCn1c(-c2cc(OC)c(OC)c(OC)c2Br)nc2sc3c(c2c1=O)CCC(Br)C3=O` (stereo not drawn) [No. 111, 7-Bromo-2-(2-bromo-3,4,5-trimethoxyphenyl)-3-(2-methoxyethyl)-6,7-dihydro-3H,5H-benzo[4,5]thieno[2,3-d]pyrimidine-4,8-dione]: the inhibition at 1 µM in test [1] came out at 23.8%; in test [2], 24.7%; in test [3] it was 7.3%. Besides, the inhibition at 10 µM in test [1] was determined as 56.9%; in test [2] it was 48.7%; in test [3] it was 41.5%.
As to `COCCn1c(-c2cc(OC)c(OC)c(OC)c2Br)nc2sc3c(O)cccc3c2c1=O` [No. 112, 2-(2-Bromo-3,4,5-trimethoxyphenyl)-8-hydroxy-3-(2-methoxyethyl)-3H-benzo[4,5]thieno[2,3-d]pyrimidin-4-one], the inhibition at 1 µM in test [1] stood at 28.3%; in test [2] it was 14.6%; in test [3] it was 7%. The inhibition at 10 µM in test [1] is 54.4%; in test [2], 46.3%; in test [3] it was 49.4%.
With `COc1cc(-c2nc3sc4c(c3c(=O)n2CC(C)C)CCCC4)cc(OC)c1OC` [No. 113, 3-Isobutyl-2-(3,4,5-trimethoxyphenyl)-5,6,7,8-tetrahydro-3H-benzo[4,5]thieno[2,3-d]pyrimidin-4-one], the results for the inhibition at 1 µM in test [1], in test [2] and in test [3] were 22.2%, 8.2% and 2.7%, respectively. Further, the inhibition at 10 µM amounted to 57.6% in test [1], 7.7% in test [2] and 48.9% in test [3].
On to `COc1cc(-c2nc3sc4c(c3c(=O)n2CC(C)C)CCCC4=O)cc(OC)c1OC` [No. 114, 3-Isobutyl-2-(3,4,5-trimethoxyphenyl)-6,7-dihydro-3H,5H-benzo[4,5]thieno[2,3-d]pyrimidine-4,8-dione], for which the inhibition at 1 µM in test [1] worked out at 15.5%; in test [2], 15.5%; in test [3] it was 2.4%. Besides, the inhibition at 10 µM came to 55.9% in test [1], 25.3% in test [2] and 32% in test [3].
As for `COc1cc(-c2nc3sc4c(c3c(=O)n2CC(C)C)CCC(Br)C4=O)cc(OC)c1OC` (stereo not drawn) [No. 115, 7-Bromo-3-isobutyl-2-(3,4,5-trimethoxyphenyl)-6,7-dihydro-3H,5H-benzo[4,5]thieno[2,3-d]pyrimidine-4,8-dione], the inhibition at 1 µM in test [1] is 22.9%; in test [2], 18.7%; in test [3] it was 7.6%. The results for the inhibition at 10 µM in test [1], in test [2] and in test [3] were 70.3%, 19.5% and 20.7%, respectively.
For the compound `COc1cc(-c2nc3sc4c(c3c(=O)n2CC(C)C)CCC(Br)C4=O)c(Br)c(OC)c1OC` (stereo not drawn) [No. 116, 7-Bromo-2-(2-bromo-3,4,5-trimethoxypheny1)-3-isobutyl-6,7-dihydro-3H,5H-benzo[4,5]thieno[2,3-d]pyrimidine-4,8-dione], the inhibition at 1 µM was 12.5% in test [1], 28% in test [2] and 8.1% in test [3]. In addition, the figures for the inhibition at 10 µM in test [1], in test [2] and in test [3] were 41.4%, 26.1% and 21.2%, respectively.
Consider `COc1cc(-c2nc3sc4c(O)cccc4c3c(=O)n2CC(C)C)c(Br)c(OC)c1OC` [No. 117, 8-Hydroxy-3-isobutyl-2-(2-bromo-3,4,5-trimethoxyphenyl)-3H-benzo[4,5]thieno[2,3-d]pyrimidin-4-one], for which the inhibition at 1 µM in test [1] worked out at 39.3%; in test [2] it was 19.7%; in test [3], 19.7%. Moreover, the inhibition at 10 µM worked out at 62.2% in test [1], 20.7% in test [2] and 44.1% in test [3].

Broadly, the inhibition is the relative decrease from the control value, in per cent.
